Measured values reported in ChEMBL document CHEMBL5038624, “Construction and activity evaluation of novel dual-target (SE/CYP51) anti-fungal agents containing amide naphthyl structure” (Eur J Med Chem, 2022).
In brackets after ≈: the same amount, converted by molar mass.

Columns and labels:
Candida tropicalis = assay: Antifungal activity against Candida tropicalis ATCC 1369 assessed as reduction in fungal growth incubated for 72 hrs by CLSI protocol based broth microdilution method; type: functional
Pichia kudriavzevii = assay: Antifungal activity against Candida krusei ATCC 6258 assessed as reduction in fungal growth incubated for 72 hrs by CLSI protocol based broth microdilution method; type: functional
Nakaseomyces glabratus = assay: Antifungal activity against Candida glabrata ATCC 0001 assessed as reduction in fungal growth incubated for 72 hrs by CLSI protocol based broth microdilution method; type: functional
Candida albicans [1] = assay: Antifungal activity against Candida albicans SC5314 assessed as reduction in fungal growth incubated for 72 hrs by CLSI protocol based broth microdilution method; type: functional
Aspergillus fumigatus = assay: Antifungal activity against Aspergillus fumigatus KM8001 assessed as reduction in fungal growth incubated for 72 hrs by CLSI protocol based broth microdilution method; type: functional
[2] = Inhibition of SE in Candida albicans ATCC SC5314 measured after 30 mins by HPLC analysis
Candida albicans [3] = assay: Antifungal activity against Candida albicans strain 632 assessed as reduction in fungal growth incubated for 72 hrs by CLSI protocol based broth microdilution method; type: functional
Candida albicans [4] = assay: Inhibition of SE/CYP51 in Candida albicans ATCC SC5314 assessed as lanosterol level incubated for 48 hrs by LC/MS analysis; design: scale not given: the % may be the effect or the level left
Candida albicans [5] = assay: Inhibition of SE/CYP51 in Candida albicans ATCC SC5314 assessed as ergosterol level incubated for 48 hrs by LC/MS analysis; design: scale not given: the % may be the effect or the level left
Candida albicans [6] = assay: Induction of apoptosis against Candida albicans ATCC SC5314 assessed as mild apoptotic cells measured after 48 hrs by Annexin V-FITC/propidium iodide staining based flow cytometry (Rvb =0.29 %); type: functional
Candida albicans [7] = assay: Antifungal activity against Candida albicans strain 17 assessed as reduction in fungal growth incubated for 72 hrs by CLSI protocol based broth microdilution method; type: functional
Candida albicans [8] = assay: Antifungal activity against Candida albicans strain CaR assessed as reduction in fungal growth incubated for 72 hrs by CLSI protocol based broth microdilution method; type: functional
Candida albicans [9] = assay: Antifungal activity against Candida albicans strain 901 assessed as reduction in fungal growth incubated for 72 hrs by CLSI protocol based broth microdilution method; type: functional
Candida albicans [10] = assay: Inhibition of SE/CYP51 in Candida albicans ATCC SC5314 assessed as unknown sterol level incubated for 48 hrs by LC/MS analysis; design: scale not given: the % may be the effect or the level left
Candida albicans [11] = assay: Induction of apoptosis against Candida albicans ATCC SC5314 assessed as viable cells measured after 48 hrs by Annexin V-FITC/propidium iodide staining based flow cytometry (reference value: 80.78 %); type: functional
Candida albicans [12] = assay: Inhibition of SE/CYP51 in Candida albicans ATCC SC5314 assessed as eburicol level incubated for 48 hrs by LC/MS analysis; design: scale not given: the % may be the effect or the level left
Candida albicans [13] = assay: Antifungal activity against Candida albicans strain 904 assessed as reduction in fungal growth incubated for 72 hrs by CLSI protocol based broth microdilution method; type: functional
Candida albicans [14] = assay: Induction of apoptosis against Candida albicans ATCC SC5314 assessed as necrotic cells measured after 48 hrs by Annexin V-FITC/propidium iodide staining based flow cytometry (reference value: 18.22 %); type: functional
Candida albicans [15] = assay: Inhibition of SE/CYP51 in Candida albicans ATCC SC5314 assessed as squalene level incubated for 48 hrs by LC/MS analysis; design: scale not given: the % may be the effect or the level left
Candida albicans [16] = assay: Induction of apoptosis against Candida albicans ATCC SC5314 assessed as late apoptotic cells measured after 48 hrs by Annexin V-FITC/propidium iodide staining based flow cytometry (reference value: 0.71 %); type: functional

SMILES	MIC50 (Candida tropicalis)	MIC50 (Pichia kudriavzevii)	MIC50 (Nakaseomyces glabratus)	MIC50 (Candida albicans [1])	MIC50 (Aspergillus fumigatus)	IC50 [2]	MIC50 (Candida albicans [3])	Activity (Candida albicans [4])	Activity (Candida albicans [5])	Activity (Candida albicans [6])	MIC50 (Candida albicans [7])	MIC50 (Candida albicans [8])	MIC50 (Candida albicans [9])	Activity (Candida albicans [10])	Activity (Candida albicans [11])	Activity (Candida albicans [12])	MIC50 (Candida albicans [13])	Activity (Candida albicans [14])	Activity (Candida albicans [15])	Activity (Candida albicans [16])
O=C(/C=C/c1ccc2ccccc2c1)NC(C(=O)NCc1cccnc1)c1ccccc1 (stereo not given)	2 µg/mL (≈ 4.74 µM)	1 µg/mL (≈ 2.37 µM)	0.5 µg/mL (≈ 1.19 µM)	2 µg/mL (≈ 4.74 µM)	> 8 µg/mL	–	–	–	–	–	–	–	–	–	–	–	–	–	–	–
O=C(/C=C/c1cccc2ccccc12)NC(C(=O)Nc1cccnc1)c1ccccc1 (stereo not given)	0.5 µg/mL (≈ 1.23 µM)	0.5 µg/mL (≈ 1.23 µM)	1 µg/mL (≈ 2.45 µM)	0.5 µg/mL (≈ 1.23 µM)	4 µg/mL (≈ 9.82 µM)	–	–	–	–	–	–	–	–	–	–	–	–	–	–	–
CN(C/C=C/c1ccccc1)Cc1cccc2ccccc12 [NAFTIFINE]	0.5 µg/mL (≈ 1.74 µM)	0.25 µg/mL (≈ 0.87 µM)	0.5 µg/mL (≈ 1.74 µM)	0.5 µg/mL (≈ 1.74 µM)	4 µg/mL (≈ 13.9 µM)	469 nM	4 µg/mL (≈ 13.9 µM)	15.2%	24.3%	0.05%	4 µg/mL (≈ 13.9 µM)	> 8 µg/mL	> 8 µg/mL	5.8%	38.54%	5.2%	4 µg/mL (≈ 13.9 µM)	60.92%	49.5%	0.49%
O=C(/C=C/c1cccc2ccccc12)NC(C(=O)NCc1ccncc1)c1ccccc1 (stereo not given)	2 µg/mL (≈ 4.74 µM)	4 µg/mL (≈ 9.49 µM)	0.5 µg/mL (≈ 1.19 µM)	2 µg/mL (≈ 4.74 µM)	> 8 µg/mL	–	–	–	–	–	–	–	–	–	–	–	–	–	–	–

Continued by falling MIC50 (Candida tropicalis), values first:

MIC50 (Candida tropicalis)	MIC50 (Pichia kudriavzevii)	MIC50 (Nakaseomyces glabratus)	MIC50 (Candida albicans [1])	MIC50 (Aspergillus fumigatus)	SMILES	IC50 [2]	MIC50 (Candida albicans [3])	Activity (Candida albicans [4])	Activity (Candida albicans [5])	Activity (Candida albicans [6])	MIC50 (Candida albicans [7])	MIC50 (Candida albicans [8])	MIC50 (Candida albicans [9])	Activity (Candida albicans [10])	Activity (Candida albicans [11])	Activity (Candida albicans [12])	MIC50 (Candida albicans [13])	Activity (Candida albicans [14])	Activity (Candida albicans [15])	Activity (Candida albicans [16])
0.5 µg/mL (≈ 1.46 µM)	0.5 µg/mL (≈ 1.46 µM)	1 µg/mL (≈ 2.92 µM)	0.5 µg/mL (≈ 1.46 µM)	4 µg/mL (≈ 11.7 µM)	O=C(NC(Cn1cncn1)c1ccccc1)c1ccc2ccccc2c1 (stereo not given)	–	–	–	–	–	–	–	–	–	–	–	–	–	–	–
0.25 µg/mL (≈ 0.679 µM)	0.5 µg/mL (≈ 1.36 µM)	0.5 µg/mL (≈ 1.36 µM)	0.25 µg/mL (≈ 0.679 µM)	> 8 µg/mL	O=C(/C=C/c1ccc2ccccc2c1)NC(Cn1cncn1)c1ccccc1 (stereo not given)	–	–	–	–	–	–	–	–	–	–	–	–	–	–	–
0.25 µg/mL (≈ 0.632 µM)	0.5 µg/mL (≈ 1.26 µM)	0.25 µg/mL (≈ 0.632 µM)	0.5 µg/mL (≈ 1.26 µM)	> 8 µg/mL	O=C(/C=C/c1ccc2ccccc2c1)NC(Cn1ccnc1)C(=O)c1ccccc1 (stereo not given)	–	–	–	–	–	–	–	–	–	–	–	–	–	–	–
